In one assay the test system is caspase-3. Nature of the assay: Caspase-3-like (DEVDase) activity in pancreatic tissue lysates. The format is in vivo, rat. Conditions: for Caspase-3-like (DEVDase) activity versus pancreatitis without curcumin: p<0.05; for augmentation of the increase in DEVDase activity: rat pancreas. As for the experimental part:
[…] activity was measured by methods known in the art. See Gukovskaya A S, et al. (2002). Briefly, samples of pancreatic tissue were rinsed with ice-cold PBS and homogenized in a lysis buffer comprising 150 mM NaCl, 50 mM Tris-HCL (pH 7.5), 0.5% Igepal CA-630 (Sigma, St. Louis, Mo.), and 0.5 mM EDTA. Lysates were centrifuged for 10 minutes at 16,000× g and the supernatants were collected. Caspase activity was determined at 37° C. in a buffer comprising 25 mM HEPES (pH 7.5), 10% sucrose, 0.1% CHAPS, 10 mM DTT and […] Ac-DEVD-AMC, a specific fluorogenic substrate for measurement of caspase-3-like activity (AnaSpec, San Jose, Calif.). Cleavage of the substrate releases AMC that emits a fluorescent signal with excitation at 380 nm and emission at 440 nm. Fluorescence was calibrated using a standard curve for AMC. The data were expressed as mol AMC/min/mg protein.

The test system of a further assay is NF-κB and AP-1. Conditions: various cell types and tissues; cited from earlier work.
Another assay concerns isolated acinar cells. Nature of the assay: Amylase secretion in isolated acinar cells. Type of assay: cell-based, rat. Conditions: 100 μM curcumin, versus absence. The procedure: The effect of curcumin on amylase secretion in isolated acinar cells was assayed. Specifically, acinar cells were isolated using a collagenase digestion technique known in the art. Animals were sacrificed with CO2. The pancreas was removed and trimmed from mesentary and fat. […]
Amylase secretion was measured. […] Amylase activity was measured in each supernatant sample as well as the cellular sample and values for amylase release were calculated as the percentage of amylase activity in the cells at the beginning of the experiment that was release into the media during the experiment.
The absorbance was read with a spectrophotometer at 405 nm at 37° C. and the amylase activity in the samples was calculated by subtracting initial from the final readings. […]

Assay [1] concerns neutrophil infiltration of pancreatic tissue. Nature of the assay: Neutrophil infiltration assay of pancreatic tissue. The format is in vivo. The conditions noted are these: rat. As for the experimental part: Neutrophil infiltration of pancreatic tissue was examined using methods known in the art. See Gukovskaya A S, et al. (1997); Gukovskaya A S, et al. (2002); Pandol S J, et al. (1999); Sandoval D, et al. (1996); and Vaquero E, et al. (2001). The pancreas was cut into about 2 to about 3 mm pieces and fixed in 4% paraformaldehyde for 2 hours. The tissue was then frozen in liquid nitrogen. 8-μm-thick serial cryostat sections of pancreatic tissue from control samples and test samples from Examples 1 and 2 were cut and mounted on glass slides. The slides were placed in phosphate buffered saline (PBS) for 5 minutes. This was repeated twice. Then the slides were transferred into blocking buffer (PBS containing 5% (wt/vol) goat serum, 0.5% bovine serum albumin (wt/vol) and 0.1% gelatin(wt/vol) for 1 hour at room temperature. Then the slides incubated with FITC-conjugated rabbit anti-rat neutrophil antibody (Accurate, Westbury, N.Y.) (diluted 1:120 in the blocking buffer) for 3 hours at room temperature. The slides were the transferred into the blocking buffer, incubated for 5 minutes, and repeated 4 times. Finally, coverslips were mounted over the tissue samples on the slide with the addition of anti-fading medium. The number of infiltrating neutrophils was obtained by counting the neutrophils at 40× magnification in an average of 50 fields covering at least about 1,000 acinar cells. For each sample, neutrophil numbers were expressed as a percentage of acinar cells.

This is an account of results in patent US7060733B2, “Methods for treating pancreatitis with curcumin compounds and inhibitors of reactive oxygen species” (The Regents of the University of California, priority 2002, dated 2006).

“Also recorded” adds a separate entry of the source.

For the compound `COc1cc(/C=C/C(=O)CC(=O)/C=C/c2ccc(O)c(OC)c2)ccc1O` [curcumin], in the assay with caspase-3 (EtOH+CCK pancreatitis), the “Caspase-3-like (DEVDase) activity versus pancreatitis without curcumin” value is listed as “significantly higher” and the “augmentation of the increase in DEVDase activity” value is reported as “greater than 2 fold”. Besides, in the assay on caspase-3 (cerulein pancreatitis), the “Caspase-3-like (DEVDase) activity versus pancreatitis without curcumin” value is reported as “significantly higher” and the “augmentation of the increase in DEVDase activity” value was “greater than 2 fold”. The “activation of NF-κB and AP-1” value in the assay with NF-κB and AP-1 was “inhibits”. For the same compound, the “amylase release elicited by maximal (1 nM) and supramaximal (100 nM) CCK-8” value in the assay on isolated acinar cells was “the same”. Moreover, in assay [1] (cerulein pancreatitis), the “inhibition of neutrophil infiltration in the pancreas” value is recorded as “greater than 50%” and the “neutrophil infiltration versus pancreatitis without curcumin” value is given as “significantly lower; also recorded: significantly inhibited”. Besides, in assay [1] (ethanol/CCK pancreatitis), the “inhibition of neutrophil infiltration in the pancreas” value is given as “greater than 50%” and the “neutrophil infiltration versus pancreatitis without curcumin” value is given as “significantly lower; also recorded: significantly inhibited”.
